Test [1] addresses T1, human muscarinic M1 receptor (Homo sapiens, UniProt P11229).
T1 sequence (P11229 1-460): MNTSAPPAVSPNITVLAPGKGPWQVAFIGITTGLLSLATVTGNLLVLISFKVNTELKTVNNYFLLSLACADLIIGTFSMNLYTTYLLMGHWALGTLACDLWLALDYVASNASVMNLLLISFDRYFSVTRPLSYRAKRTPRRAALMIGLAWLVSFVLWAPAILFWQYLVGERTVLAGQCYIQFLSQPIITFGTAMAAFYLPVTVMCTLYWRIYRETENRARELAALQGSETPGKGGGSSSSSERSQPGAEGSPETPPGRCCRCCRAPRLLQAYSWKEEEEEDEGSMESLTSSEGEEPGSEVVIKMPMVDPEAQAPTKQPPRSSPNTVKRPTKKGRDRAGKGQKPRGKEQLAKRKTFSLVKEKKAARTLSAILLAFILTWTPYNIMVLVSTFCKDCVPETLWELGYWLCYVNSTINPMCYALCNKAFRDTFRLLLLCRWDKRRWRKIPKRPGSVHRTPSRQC
Description: Alphascreen Surefire phospho-ERK1/2 functional assay, M1. It is filed as cell-based. As to conditions: for EC50 / % Emax cf. ACh, M1: CHO cells stably expressing human M1; for EC50: phospho-ERK1/2, * = variable results, read-out: pEC50 M1 (converted); for Emax: CHO, read-out: % Emax cf. ACh, M1, CHO cells stably expressing human M1; for Emax / % Emax cf. ACh, M1: relative to ACh.

Test [2] deals with T2, human muscarinic M4 receptor (Homo sapiens, UniProt P08173).
T2 construct: expressed in transfected cells
T2 sequence (P08173 1-479): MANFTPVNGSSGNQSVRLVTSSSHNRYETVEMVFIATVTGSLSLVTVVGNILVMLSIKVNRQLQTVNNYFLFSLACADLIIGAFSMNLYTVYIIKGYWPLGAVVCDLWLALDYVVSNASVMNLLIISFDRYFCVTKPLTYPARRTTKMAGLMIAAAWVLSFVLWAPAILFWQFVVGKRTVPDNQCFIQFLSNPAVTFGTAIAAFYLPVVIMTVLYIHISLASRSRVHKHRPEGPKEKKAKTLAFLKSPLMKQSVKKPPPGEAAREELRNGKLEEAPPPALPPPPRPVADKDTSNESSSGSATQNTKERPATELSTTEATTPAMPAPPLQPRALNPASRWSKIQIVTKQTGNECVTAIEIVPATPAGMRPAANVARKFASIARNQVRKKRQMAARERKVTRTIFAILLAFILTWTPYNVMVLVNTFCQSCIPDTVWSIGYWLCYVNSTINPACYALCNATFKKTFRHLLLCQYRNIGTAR
Description: Alphascreen Surefire phospho-ERK1/2 functional assay, M4. In kind it is cell-based. As to conditions: for EC50 / % Emax cf. ACh, M4: CHO cells stably expressing human M4; for EC50: phospho-ERK1/2, * = variable results, read-out: pEC50 M4 (converted); for Emax: CHO, read-out: % Emax cf. ACh, M4, CHO cells stably expressing human M4; for Emax / % Emax cf. ACh, M4: relative to ACh.

Test [3] addresses T3, human muscarinic M2 receptor (Homo sapiens, UniProt P08172).
T3 sequence (P08172 1-466): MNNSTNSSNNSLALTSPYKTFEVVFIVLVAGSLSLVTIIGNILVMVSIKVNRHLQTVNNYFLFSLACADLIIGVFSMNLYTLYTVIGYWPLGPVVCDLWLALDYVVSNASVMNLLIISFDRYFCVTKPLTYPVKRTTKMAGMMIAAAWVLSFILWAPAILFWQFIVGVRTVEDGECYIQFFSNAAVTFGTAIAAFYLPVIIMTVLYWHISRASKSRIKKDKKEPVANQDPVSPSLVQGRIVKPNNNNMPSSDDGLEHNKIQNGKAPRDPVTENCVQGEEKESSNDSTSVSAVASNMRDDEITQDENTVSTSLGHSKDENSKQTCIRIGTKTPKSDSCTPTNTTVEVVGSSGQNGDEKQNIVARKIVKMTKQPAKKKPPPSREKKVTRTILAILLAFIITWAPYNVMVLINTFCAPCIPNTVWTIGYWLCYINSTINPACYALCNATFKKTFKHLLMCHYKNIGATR
Description: Alphascreen Surefire phospho-ERK1/2 functional assay, M2. As to conditions: for Emax: CHO, read-out: % Emax cf. ACh, M2, CHO cells stably expressing human M2.
Description: CHO cells stably expressing the human muscarinic M1, M2, M3 or M4 receptor were plated (25K/well) onto 96-well tissue culture plates in MEM-alpha+10% dialysed FBS. Once adhered, cells were serum-starved overnight. Agonist stimulation was performed by the addition of 5 μL agonist to the cells for 5 min (37° C.). Media was removed and 50 μL of lysis buffer added. After 15 min, a 4 μL sample was transferred to 384-well plate and 7 μL of detection mixture added. Plates were incubated for 2 h with gentle agitation in the dark and then read on a PHERAstar plate reader.
pEC50 and Emax figures were calculated from the resulting data for each receptor subtype.

Test [4] concerns the target human muscarinic M3 receptor (Homo sapiens, UniProt P20309). Description: Alphascreen Surefire phospho-ERK1/2 functional assay, M3. As to conditions: for Emax: CHO, read-out: % Emax cf. ACh, M3, CHO cells stably expressing human M3; for Emax / % Emax cf. ACh, M3: relative to ACh; for EC50: pEC50 M3, CHO cells stably expressing human M3.
Where [5] appears, read: phospho-ERK1/2, * = variable results.
[6] abbreviates: CHO cells stably expressing human M3.

Sequence of human muscarinic M3 receptor (P20309 whole entry): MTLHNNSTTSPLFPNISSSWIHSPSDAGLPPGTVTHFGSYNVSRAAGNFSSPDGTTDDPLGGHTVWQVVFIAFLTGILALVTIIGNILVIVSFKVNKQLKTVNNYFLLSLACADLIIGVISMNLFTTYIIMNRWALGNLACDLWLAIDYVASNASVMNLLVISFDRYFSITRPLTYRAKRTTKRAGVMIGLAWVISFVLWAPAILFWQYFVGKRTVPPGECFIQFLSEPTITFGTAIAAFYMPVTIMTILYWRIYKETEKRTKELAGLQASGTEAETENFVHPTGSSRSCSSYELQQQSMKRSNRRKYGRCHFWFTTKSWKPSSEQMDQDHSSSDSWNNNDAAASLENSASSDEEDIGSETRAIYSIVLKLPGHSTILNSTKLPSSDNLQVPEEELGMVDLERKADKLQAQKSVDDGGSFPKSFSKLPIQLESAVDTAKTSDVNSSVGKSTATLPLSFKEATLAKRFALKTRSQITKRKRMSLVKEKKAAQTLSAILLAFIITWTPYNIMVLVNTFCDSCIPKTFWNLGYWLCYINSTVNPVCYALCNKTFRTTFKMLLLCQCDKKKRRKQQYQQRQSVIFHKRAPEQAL

As to `CCOC(=O)N1CCC2(CC(N3CCC([C@@H]4CCCN4C(=O)N(C)Cc4ccccn4)CC3)C2)C1` (single isomer, unassigned) [2-63 Isomer 2], the EC50 in test [1] is 251 nM; in test [2], 63.1 nM; in test [3], more than 20000 nM; in test [4] (setting [5]) it was more than 20000 nM. Moreover, the maximal effect (Emax) in test [1] came to 34%; in test [2] it was 60%; in test [3] (relative to ACh), 0%; in test [4] it was 4%.

Take `CCOC(=O)N1CCC2(CC(N3CCC([C@@H]4CCCN4C(=O)OCc4ccccn4)CC3)C2)C1` (single isomer, unassigned) [2-64 Isomer 2]: the EC50 in test [1] is more than 20000 nM; in test [2], 3.16 nM; in test [3], more than 20000 nM; in test [4] (setting [5]) it was more than 20000 nM. Further, the Emax in test [1] worked out at 12%; in test [2] it was 41%; in test [3] (relative to ACh), 6%; in test [4] it was 8%.

As for `CCOC(=O)N1CCC2(CC(N3CCC([C@@H]4CCCN4C(=O)CCNC(=O)OCc4ccccc4)CC3)C2)C1` (single isomer, unassigned) [2-65 Isomer 2], the EC50 is 158 nM in test [1], 7.94 nM in test [2], more than 20000 nM in test [3] and more than 20000 nM in test [4] (setting [5]). Also, the maximal effect (Emax) in test [1] came out at 60%; in test [2], 107%; in test [3] (relative to ACh) it was 1%; in test [4], 1%.

Turning to `CCOC(=O)N1CCC2(CC(N3CCC([C@@H]4CCCN4C(=O)CCN)CC3)C2)C1` (single isomer, unassigned) [2-66 Isomer 2], the EC50 in test [1] is 39.8 nM; in test [2] it was 1.26 nM; in test [3] it was more than 20000 nM; in test [4] (setting [5]), more than 20000 nM. Besides, the Emax came to 96% in test [1], 115% in test [2], 18% in test [3] (relative to ACh) and 8% in test [4].

For `CCOC(=O)N1CCC2(CC(N3CCC([C@@H]4CCCN4C(=O)OCCNC)CC3)C2)C1` (single isomer, unassigned) [2-67 Isomer 2], the EC50 is more than 20000 nM in test [1], 20 nM in test [2], more than 20000 nM in test [3] and more than 20000 nM in test [4] (setting [5]). In addition, the Emax in test [1] was 19%; in test [2], 79%; in test [3] (relative to ACh), 67%; in test [4] it was 1%.

Consider `CCOC(=O)N1CCC2(CC(N3CCC([C@@H]4CCCN4CCF)CC3)C2)C1` (single isomer, unassigned) [2-68 Isomer 2], for which the EC50 in test [1] was 1000 nM; in test [2], 63.1 nM; in test [3], more than 20000 nM; in test [4] (setting [5]), more than 20000 nM. Also, the maximum response (Emax) amounted to 32% in test [1], 73% in test [2], 4% in test [3] (relative to ACh) and 6% in test [4].

As to `CCOC(=O)N1CCC2(CC(N3CCC([C@@H]4CCCN4CC(F)(F)F)CC3)C2)C1` (single isomer, unassigned) [2-69 Isomer 2], the EC50 is 398 nM in test [1], 12.6 nM in test [2], more than 20000 nM in test [3] and more than 20000 nM in test [4] (setting [5]). The Emax in test [1] amounted to 87%; in test [2], 110%; in test [3] (relative to ACh), 3%; in test [4], 2%.

On to `CCOC(=O)N1CCC2(CC(N3CCC([C@@H]4CCCN4CCC(F)(F)F)CC3)C2)C1` (single isomer, unassigned) [2-70 Isomer 2], for which the EC50 in test [1] was 1580 nM; in test [2] it was 31.6 nM; in test [3], more than 20000 nM; in test [4] (setting [5]) it was more than 20000 nM. Moreover, in test [1], the “% Emax cf. ACh, M1” value turned out to be 93%. For the same compound, the “% Emax cf. ACh, M4” value in test [2] was 111%. The Emax worked out at 1% in test [3] (relative to ACh) and 3% in test [4].

Regarding `CCOC(=O)N1CCC2(CC(N3CCC([C@@H]4CCCN4CC(=O)OC)CC3)C2)C1` (single isomer, unassigned) [2-72 Isomer 2], the EC50 in test [1] was 794 nM; in test [2] it was 79.4 nM; in test [3] it was more than 20000 nM; in test [4] (setting [5]), more than 20000 nM. In addition, the Emax is 30% in test [1], 52% in test [2], 13% in test [3] (relative to ACh) and 10% in test [4].

Take `CCOC(=O)N1CCC2(CC(N3CCC([C@@H]4CCCN4Cc4ccccc4)CC3)C2)C1` (single isomer, unassigned) [2-74 Isomer 2]: the EC50 is more than 20000 nM in test [1], 79.4 nM in test [2], more than 20000 nM in test [3] and more than 20000 nM in test [4] (setting [5]). Besides, the Emax amounted to 18% in test [1], 54% in test [2], 16% in test [3] (relative to ACh) and 8% in test [4].

For the compound `CCOC(=O)N1CCC2(CC(N3CCC([C@@H]4CCCN4C(=S)NC)CC3)C2)C1` (single isomer, unassigned) [2-75 Isomer 2], the EC50 in test [1] is 316 nM; in test [2], 2.51 nM; in test [3] it was more than 20000 nM; in test [4] (setting [5]), more than 20000 nM. Also, the Emax in test [1] is 80%; in test [2] it was 109%; in test [3] (relative to ACh), 6%; in test [4] it was 4%.

For the compound `CCOC(=O)N1CCC2(CC(N3CCC(C4c5ccccc5CN4C(=O)NC)CC3)C2)C1` (single isomer, unassigned) [2-76 Isomer 1, ethyl 2-(4-(2-(methylcarbamoyl)-isoindolin-1-yl)piperidin-1-yl)-6-azaspiro[3.4]octane-6-carboxylate], the EC50 was 126 nM in test [1], 39.8 nM in test [2], more than 20000 nM in test [3] and more than 20000 nM in test [4] (setting [5]). The values for the Emax in test [1], in test [2] and in test [3] (relative to ACh) were 82%, 114% and 10%, respectively. Also, the “% Emax cf. ACh, M3” value in test [4] (setting [6]) amounted to 35%.

Regarding `CCOC(=O)N1CCC2(CC(N3CCC(C4c5ccccc5CN4C(=O)NC)CC3)C2)C1` (single isomer, unassigned) [2-76 Isomer 2, ethyl 2-(4-(2-(methylcarbamoyl)-isoindolin-1-yl)piperidin-1-yl)-6-azaspiro[3.4]octane-6-carboxylate], in test [1], the EC50 was 50.1 nM and the “% Emax cf. ACh, M1” value came to 88%. Moreover, in test [2], the EC50 is 12.6 nM and the “% Emax cf. ACh, M4” value came out at 107%. Besides, the “pEC50 M2” value in test [3] (CHO cells stably expressing human M2, phospho-ERK1/2, * = variable results) is reported as less than 4.7. Also, the “% Emax cf. ACh, M2” value in test [3] (CHO cells stably expressing human M2, relative to ACh) is 16%. Further, in test [4] (CHO cells stably expressing human M3, phospho-ERK1/2, * = variable results), the “pEC50 M3” value was less than 4.7. Also, the “% Emax cf. ACh, M3” value in test [4] (setting [6]) is 14%.

As to `CCOC(=O)N1CCC2(CC(N3CCC([C@@H]4CCCN4c4ccccc4)CC3)C2)C1` (single isomer, unassigned) [2-77 Isomer 2], the EC50 in test [1] was 251 nM; in test [2] it was 6.31 nM; in test [3], more than 20000 nM; in test [4] (setting [5]), more than 20000 nM. Also, the Emax is 51% in test [1], 105% in test [2], 14% in test [3] (relative to ACh) and 47% in test [4].

The values above are taken from patent US9926297B2, “Bicyclic AZA compounds as muscarinic M1 receptor and/or M4 receptor agonists” (Heptares Therapeutics Limited, priority 2014, dated 2018).
